Laboratory results reported in article PMC9597353, “Mitoguardin-2–mediated lipid transfer preserves mitochondrial morphology and lipid droplet formation” (The Journal of Cell Biology, 2022).

Assays:
hMIGA2C = target: T1, hMIGA2C (Homo sapiens, UniProt Q7L4E1); experiment: end-point lipid transfer between tethered liposomes; format: biochemical; settings: labelled compound; 0.32 µM protein, 2% NBD-lipid in donor liposomes, 30 min
T1 construct: gene MIGA2; C-terminal domain only, residues 306-593, C-terminal His6 kept, expressed in E. coli BL21(DE3); monomer by SEC
T1 sequence (Q7L4E1 306-593): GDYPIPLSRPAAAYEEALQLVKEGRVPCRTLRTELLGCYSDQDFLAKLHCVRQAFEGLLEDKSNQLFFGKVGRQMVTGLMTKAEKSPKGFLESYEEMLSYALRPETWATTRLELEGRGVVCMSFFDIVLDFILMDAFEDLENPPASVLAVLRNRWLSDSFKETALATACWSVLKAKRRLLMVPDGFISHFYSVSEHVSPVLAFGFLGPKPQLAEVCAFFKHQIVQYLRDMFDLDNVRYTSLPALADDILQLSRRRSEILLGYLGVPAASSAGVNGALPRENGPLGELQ

hMIGA2long [1] = target: T2, hMIGA2long (Homo sapiens, UniProt Q7L4E1); experiment: native PAGE co-migration, NBD fluorescence; format: binding; settings: labelled compound; on ice 2 h
T2 construct: gene MIGA2; N-terminal 3xFLAG (Expi293F) and/or C-terminal His6 (E. coli), tags kept; dimer
T2 sequence (Q7L4E1 170-593): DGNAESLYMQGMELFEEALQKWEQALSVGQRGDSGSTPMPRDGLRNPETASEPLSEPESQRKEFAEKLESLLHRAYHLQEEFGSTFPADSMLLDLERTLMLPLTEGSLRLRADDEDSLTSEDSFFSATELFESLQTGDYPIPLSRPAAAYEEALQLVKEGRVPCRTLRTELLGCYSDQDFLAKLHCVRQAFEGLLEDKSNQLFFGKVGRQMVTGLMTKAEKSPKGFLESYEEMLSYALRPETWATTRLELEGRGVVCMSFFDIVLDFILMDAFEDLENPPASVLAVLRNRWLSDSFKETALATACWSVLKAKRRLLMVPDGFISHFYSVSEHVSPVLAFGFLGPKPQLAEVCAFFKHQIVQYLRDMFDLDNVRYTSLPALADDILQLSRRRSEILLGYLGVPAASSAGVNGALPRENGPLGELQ

hMIGA2long [2] = target: T3, hMIGA2long (Homo sapiens, UniProt Q7L4E1, V376D/L438E/F495H/I528K); experiment: FRET lipid transfer between tethered liposomes; format: biochemical; settings: labelled compound; 0.25 µM protein, 30°C; mutant M1, 3xFLAG and His6 tags
T3 construct: gene MIGA2; N-terminal 3xFLAG (Expi293F) and/or C-terminal His6 (E. coli), tags kept; dimer
T3 sequence (Q7L4E1 170-593 V376D/L438E/F495H/I528K): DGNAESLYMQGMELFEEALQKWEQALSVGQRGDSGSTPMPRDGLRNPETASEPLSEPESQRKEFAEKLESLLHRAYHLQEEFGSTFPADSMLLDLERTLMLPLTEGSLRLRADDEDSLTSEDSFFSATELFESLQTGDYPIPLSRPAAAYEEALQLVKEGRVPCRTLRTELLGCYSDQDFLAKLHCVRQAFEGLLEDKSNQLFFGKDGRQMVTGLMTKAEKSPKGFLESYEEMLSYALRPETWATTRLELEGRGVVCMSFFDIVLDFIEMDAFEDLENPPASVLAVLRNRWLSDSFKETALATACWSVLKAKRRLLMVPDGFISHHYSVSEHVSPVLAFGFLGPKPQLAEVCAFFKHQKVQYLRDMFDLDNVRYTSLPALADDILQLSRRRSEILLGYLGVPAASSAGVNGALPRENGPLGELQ

hMIGA2long [3] = target: T4, hMIGA2long (Homo sapiens, UniProt Q7L4E1, R357N/S428G); experiment: FRET lipid transfer between tethered liposomes; format: biochemical; settings: labelled compound; 0.25 µM protein, 30°C; mutant M3, 3xFLAG and His6 tags
T4 construct: gene MIGA2; N-terminal 3xFLAG (Expi293F) and/or C-terminal His6 (E. coli), tags kept; dimer
T4 sequence (Q7L4E1 170-593 R357N/S428G): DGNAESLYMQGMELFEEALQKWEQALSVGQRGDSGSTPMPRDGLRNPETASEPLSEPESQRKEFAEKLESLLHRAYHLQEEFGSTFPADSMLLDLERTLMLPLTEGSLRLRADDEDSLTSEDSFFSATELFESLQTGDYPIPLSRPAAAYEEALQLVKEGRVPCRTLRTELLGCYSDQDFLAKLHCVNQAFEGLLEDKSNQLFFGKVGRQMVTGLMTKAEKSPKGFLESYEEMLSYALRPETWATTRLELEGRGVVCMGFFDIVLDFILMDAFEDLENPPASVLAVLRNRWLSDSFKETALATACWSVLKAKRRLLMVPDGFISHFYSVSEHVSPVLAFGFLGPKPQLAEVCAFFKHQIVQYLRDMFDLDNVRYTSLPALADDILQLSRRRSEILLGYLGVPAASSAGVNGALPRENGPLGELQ

hMIGA2long [4] = target: T5, hMIGA2long (Homo sapiens, UniProt Q7L4E1, V381E/V502K/L506D/F524H); experiment: FRET lipid transfer between tethered liposomes; format: biochemical; settings: labelled compound; 0.25 µM protein, 30°C; mutant M2, 3xFLAG and His6 tags
T5 construct: gene MIGA2; N-terminal 3xFLAG (Expi293F) and/or C-terminal His6 (E. coli), tags kept; dimer
T5 sequence (Q7L4E1 170-593 V381E/V502K/L506D/F524H): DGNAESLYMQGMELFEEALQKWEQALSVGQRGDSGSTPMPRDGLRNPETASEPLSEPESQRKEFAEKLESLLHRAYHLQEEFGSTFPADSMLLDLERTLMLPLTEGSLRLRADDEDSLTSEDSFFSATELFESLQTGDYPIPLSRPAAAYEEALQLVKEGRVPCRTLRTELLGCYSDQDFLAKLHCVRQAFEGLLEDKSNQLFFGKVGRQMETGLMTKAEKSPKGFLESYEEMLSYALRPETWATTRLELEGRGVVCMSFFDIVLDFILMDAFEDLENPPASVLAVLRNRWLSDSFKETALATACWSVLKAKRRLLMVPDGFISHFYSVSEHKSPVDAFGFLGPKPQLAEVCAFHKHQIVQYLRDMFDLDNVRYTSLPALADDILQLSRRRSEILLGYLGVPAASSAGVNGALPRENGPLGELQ

hMIGA2long [5] = target: T2, hMIGA2long; experiment: FRET lipid transfer between tethered liposomes; format: biochemical; settings: labelled compound; 0.25 µM protein, 2% NBD-lipid in donor liposomes, 30°C
[6] = target: human MIGA2 cytosolic fragment with part of the linker region (coiled-coil) and the C-terminal domain, C-terminal 6xhis (human) (UniProt Q7L4E1); experiment: native MS; 200 mM ammonium acetate, 2 mM DTT; protein 1-5 μM; Q Exactive UHMR
[7] = target: the molecule itself; experiment: SEC; Superdex 200 16/60, with size standards

Row | Molecule | end-point lipid transfer between tethered liposomes (hMIGA2C) | native PAGE co-migration, NBD fluorescence (hMIGA2long [1]) | other results
1 | CCCCCCCC/C=C\CCCCCCCC(=O)OC[C@H](COP(=O)(O)O)OC(=O)CCCCCCCCCCCNc1ccc([N+](=O)[O-])c2nonc12 [NBD-PAacyl] | Both hMIGA2long and hMIGA2C transport NBD-PEacyl, -PSacyl, -PAacyl, and NBD-PCacyl | Phospholipids (NBD-PAacyl, NBD-PCacyl NBD-PShead, NBD-PEacyl) visualized by their fluorescence, comigrated with protein | 
2 | CCCCCCCC/C=C\CCCCCCCC(=O)OC[C@H](COP(=O)(O)OCCN)OC(=O)CCCCCCCCCCCNc1ccc([N+](=O)[O-])c2nonc12 [NBD-PEacyl] | Both hMIGA2long and hMIGA2C transport NBD-PEacyl, -PSacyl, -PAacyl, and NBD-PCacyl | Phospholipids (NBD-PAacyl, NBD-PCacyl NBD-PShead, NBD-PEacyl) visualized by their fluorescence, comigrated with protein | lipid transfer impaired (hMIGA2long [2]): all three mutant constructs (M1, M2, M3) are lipid transfer impaired; lipid transfer impaired (hMIGA2long [3]): all three mutant constructs (M1, M2, M3) are lipid transfer impaired; lipid transfer impaired (hMIGA2long [4]): all three mutant constructs (M1, M2, M3) are lipid transfer impaired
3 | CCCCCCCC/C=C\CCCCCCCC(=O)OC[C@H](COP(=O)([O-])OCC[N+](C)(C)C)OC(=O)CCCCCCCCCCCNc1ccc([N+](=O)[O-])c2nonc12 [NBD-PCacyl] | Both hMIGA2long and hMIGA2C transport NBD-PEacyl, -PSacyl, -PAacyl, and NBD-PCacyl | Phospholipids (NBD-PAacyl, NBD-PCacyl NBD-PShead, NBD-PEacyl) visualized by their fluorescence, comigrated with protein | 
4 | CCCCCCCC/C=C\CCCCCCCC(=O)OC[C@H](COP(=O)(O)OC[C@H](N)C(=O)O)OC(=O)CCCCCCCCCCCNc1ccc([N+](=O)[O-])c2nonc12 [NBD-PSacyl] | Both hMIGA2long and hMIGA2C transport NBD-PEacyl, -PSacyl, -PAacyl, and NBD-PCacyl |  | FRET lipid transfer between tethered liposomes (hMIGA2long [5]): hMIGA2long can transport NBD-PSacyl, NBD-PAacyl, NBD-PEacyl, and NBD-PCacyl
5 | CCCCCCCC/C=C\CCCCCCCC(=O)OC[C@H](COP(=O)(O)OC[C@H](Nc1ccc([N+](=O)[O-])c2nonc12)C(=O)O)OC(=O)CCCCCCC/C=C\CCCCCCCC [NBD-PShead] |  | Phospholipids (NBD-PAacyl, NBD-PCacyl NBD-PShead, NBD-PEacyl) visualized by their fluorescence, comigrated with protein | 
6 | human MIGA2 cytosolic fragment with part of the linker region (coiled-coil) and the C-terminal domain, C-terminal 6xhis (from UniProt Q7L4E1 170-593) (domain or fragment) |  |  | stoichiometry N [6]: 2
7 | C. elegans MIGA2 cytosolic fragment with the coiled-coil of the linker region and the C-terminal domain (residues 106-496) (domain or fragment, UniProt Q21096 106-496, looked up, C. elegans MIGA (mitoguardin homolog), Uniprot Q21096, residues 106-496: coiled-coil segment of the linker region and the C-terminal domain; Co-purifies with glycerophospholipid from E. coli; Plasmids of the study are in Addgene (192832, 192833, 192834, 192835, 192837, 192866, 192867); also called CeMIGA2_(long); CeMIGA_(long); source: E. coli C43 (DE3), purified (Ni-NTA, sumo protease, second …)) SMNPIEADITSGQELCTELRKTIEKVHHNLEMVKNRSSKDMERSIKIEGILKGLKQVEDEIVLLVPQMEDFRDDNMEFYSVSGGSGYAGSVRTGRSRTLSVLSDDSFRSAVEEFACDIDDIDFVSDAANLDKNELRFLDEGMQAALNGEVKYRKSRMEFCKCDSETDFAAKLYCVRQALTNALKDEHKRVWLAKCGRTLLADFIRHTKQDPVKFFNAYDEMLEYVSNDRNEEQLRQDVEGRGVCETGFYDVAIDFIILDAFEDLKSPPSAVYSVTKNYFMSMSMKYSTLNTIIWSIIKSKRQRLKNPDGFIAKFYNISETVMPAITLGFLGTDERLGELCQYFKEQVVQFVLDVFNTQKVCYRSLEEMSEDVWIVMRNRLEAVQTRMSNEL |  |  | stoichiometry N [7]: 2
